Experimental data taken from ChEMBL document CHEMBL6127049, “Discovery of the selective and nanomolar inhibitor of DPP-4 more potent than sitagliptin by structure-guided rational design” (Eur J Med Chem, 2024).
Calls of active or inactive are those of the source. The calls are words filed in the database; no cut-off is given here.

Legend:
[1] = molecular target: Dipeptidyl peptidase 4 (Homo sapiens, UniProt P27487); test: Inhibition of DPP4 (unknown origin) assessed as hydrolysis rate using Gly-pro-p-nitroanilide as substrate measured after 20 mins incubation by fluorometric assay
Dipeptidyl peptidase 4, sequence (P27487 whole entry): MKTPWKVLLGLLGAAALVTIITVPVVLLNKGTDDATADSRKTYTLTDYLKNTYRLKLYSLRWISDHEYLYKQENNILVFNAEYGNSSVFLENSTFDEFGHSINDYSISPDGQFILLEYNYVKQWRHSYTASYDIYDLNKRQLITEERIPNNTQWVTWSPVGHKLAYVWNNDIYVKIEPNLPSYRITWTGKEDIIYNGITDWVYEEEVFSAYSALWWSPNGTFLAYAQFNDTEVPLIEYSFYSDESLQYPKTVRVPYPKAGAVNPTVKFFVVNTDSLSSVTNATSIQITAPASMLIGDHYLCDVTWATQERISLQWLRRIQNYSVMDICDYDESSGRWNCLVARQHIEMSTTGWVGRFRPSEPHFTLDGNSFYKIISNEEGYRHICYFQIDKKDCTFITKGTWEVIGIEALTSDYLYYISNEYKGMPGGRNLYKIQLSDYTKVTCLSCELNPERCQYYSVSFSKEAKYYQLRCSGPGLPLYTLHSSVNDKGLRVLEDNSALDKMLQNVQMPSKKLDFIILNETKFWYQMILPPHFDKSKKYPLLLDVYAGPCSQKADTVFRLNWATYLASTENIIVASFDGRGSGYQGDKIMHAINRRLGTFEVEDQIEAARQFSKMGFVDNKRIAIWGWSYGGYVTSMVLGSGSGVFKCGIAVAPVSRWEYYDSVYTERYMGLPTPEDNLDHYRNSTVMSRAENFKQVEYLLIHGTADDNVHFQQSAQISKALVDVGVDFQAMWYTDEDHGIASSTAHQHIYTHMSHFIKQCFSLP

[2] = tested on: Rattus norvegicus; test: Anti-diabetic activity in normal Wistar rat model assessed as blood glucose level at 10 mg/kg, po followed by treated administered 3 mg/kg orally measured after 30 mins by Oral glucose tolerance test (reference value: […] 176.14 + /- 4.04 mg/dL); assay type: functional; settings: 0.5 h
[3] = tested on: Rattus norvegicus; test: Anti-diabetic activity in normal Wistar rat model assessed as blood glucose level at 10 mg/kg, po followed by treated administered 3 mg/kg orally measured after 60 mins by Oral glucose tolerance test (reference value: 153.74 + /- 3.94 mg/dL); assay type: functional; settings: 1 h
[4] = tested on: Rattus norvegicus; test: Anti-diabetic activity in normal Wistar rat model assessed as blood glucose level at 10 mg/kg, po followed by treated administered 3 mg/kg orally measured after 90 mins by Oral glucose tolerance test (reference value: 134.11 + /- 4.64 mg/dL); assay type: functional; settings: 1.5 h
[5] = tested on: Rattus norvegicus; test: Anti-diabetic activity in normal Wistar rat model assessed as blood glucose level at 10 mg/kg, po followed by treated administered 3 mg/kg orally measured after 120 mins by Oral glucose tolerance test (reference value: 126.5 + /- 3.90 mg/dL); assay type: functional; settings: 2 h
[6] = tested on: Rattus norvegicus; test: Anti-diabetic activity in normal Wistar rat model assessed as blood glucose level at 20 mg/kg, po followed by treated administered 3 mg/kg orally measured after 30 mins by Oral glucose tolerance test (reference value: 176.14 + /- 4.04 mg/dL); assay type: functional; settings: 0.5 h
[7] = tested on: Rattus norvegicus; test: Anti-diabetic activity in normal Wistar rat model assessed as blood glucose level at 20 mg/kg, po followed by treated administered 3 mg/kg orally measured after 60 mins by Oral glucose tolerance test (reference value: 153.74 + /- 3.94 mg/dL); assay type: functional; settings: 1 h
[8] = tested on: Rattus norvegicus; test: Anti-diabetic activity in normal Wistar rat model assessed as blood glucose level at 20 mg/kg, po followed by treated administered 3 mg/kg orally measured after 90 mins by Oral glucose tolerance test (reference value: 134.11 + /- 4.64 mg/dL); assay type: functional; settings: 1.5 h
[9] = tested on: Rattus norvegicus; test: Anti-diabetic activity in normal Wistar rat model assessed as blood glucose level at 20 mg/kg, po followed by treated administered 3 mg/kg orally measured after 120 mins by Oral glucose tolerance test (reference value: 126.5 + /- 3.90 mg/dL); assay type: functional; settings: 2 h
[10] = tested on: Rattus norvegicus; test: Anti-diabetic activity in normal Wistar rat model assessed as blood glucose level at 10 mg/kg, po followed by treated administered 3 mg/kg orally measured immediately after administration by Oral glucose tolerance test (reference value: 105.12 mg/dL); assay type: functional
[11] = tested on: Rattus norvegicus; test: Anti-diabetic activity in normal Wistar rat model assessed as blood glucose level at 20 mg/kg, po followed by treated administered 3 mg/kg orally measured immediately after administration by Oral glucose tolerance test (reference value: 105.12 mg/dL); assay type: functional
[12] = tested on: Rattus norvegicus; test: Antihyperlipidemic effect in STZ-induced type 2 diabetes male Wistar albino rat model assessed as total cholesterol level at 10 mg/kg, po measured after 4 weeks (reference value: 227.04 +/- 4.10 mg/dL); assay type: functional
[13] = tested on: Rattus norvegicus; test: Antihyperlipidemic effect in STZ-induced type 2 diabetes male Wistar albino rat model assessed as HDL level at 10 mg/kg, po measured after 4 weeks (reference value: 25.54 +/- 2.62 mg/dL); assay type: functional
[14] = tested on: Rattus norvegicus; test: Antihyperlipidemic effect in STZ-induced type 2 diabetes male Wistar albino rat model assessed as LDL level at 10 mg/kg, po measured after 4 weeks (reference value: 184.65 +/- 4.57 mg/dL); assay type: functional
[15] = tested on: Rattus norvegicus; test: Antihyperlipidemic effect in STZ-induced type 2 diabetes male Wistar albino rat model assessed as triglyceride level at 10 mg/kg, po measured after 4 weeks (reference value: 190.23 +/- 4.37 mg/dL); assay type: functional
[16] = tested on: Rattus norvegicus; test: Antihyperlipidemic effect in STZ-induced type 2 diabetes male Wistar albino rat model assessed as total cholesterol level at 20 mg/kg, po measured after 4 weeks (reference value: 227.04 +/- 4.10 mg/dL); assay type: functional
[17] = tested on: Rattus norvegicus; test: Antihyperlipidemic effect in STZ-induced type 2 diabetes male Wistar albino rat model assessed as HDL level at 20 mg/kg, po measured after 4 weeks (reference value: 25.54 +/- 2.62 mg/dL); assay type: functional
[18] = tested on: Rattus norvegicus; test: Antihyperlipidemic effect in STZ-induced type 2 diabetes male Wistar albino rat model assessed as LDL level at 20 mg/kg, po measured after 4 weeks (reference value: 184.65 +/- 4.57 mg/dL); assay type: functional
[19] = tested on: Rattus norvegicus; test: Antihyperlipidemic effect in STZ-induced type 2 diabetes male Wistar albino rat model assessed as triglyceride level at 20 mg/kg, po measured after 4 weeks (reference value: 190.23 +/- 4.37 mg/dL); assay type: functional
[20] = tested on: Rattus norvegicus; test: Reduction of alkaline phosphatase (ALP) level in STZ-induced type 2 diabetes male Wistar albino rat model at 10 mg/kg, po measured after 4 weeks by hepatic function test; assay type: functional, organism-based
[21] = tested on: Rattus norvegicus; test: Reduction of serum glutamate pyruvate transaminase (SGPT) level in STZ-induced type 2 diabetes male Wistar albino rat model at 10 mg/kg, po measured after 4 weeks by hepatic function test; assay type: functional, organism-based
[22] = tested on: Rattus norvegicus; test: Reduction of serum glutamate oxaloacetate transaminase (SGOT) level in STZ-induced type 2 diabetes male Wistar albino rat model at 10 mg/kg, po measured after 4 weeks by hepatic function test; assay type: functional, organism-based
[23] = tested on: Rattus norvegicus; test: Reduction of serum creatinine level in STZ-induced type 2 diabetes male Wistar albino rat model at 10 mg/kg, po measured after 4 weeks by hepatic function test; assay type: functional, organism-based
[24] = tested on: Rattus norvegicus; test: Reduction of alkaline phosphatase (ALP) level in STZ-induced type 2 diabetes male Wistar albino rat model at 20 mg/kg, po measured after 4 weeks by hepatic function test; assay type: functional, organism-based
[25] = tested on: Rattus norvegicus; test: Reduction of serum glutamate pyruvate transaminase (SGPT) level in STZ-induced type 2 diabetes male Wistar albino rat model at 20 mg/kg, po measured after 4 weeks by hepatic function test; assay type: functional, organism-based
[26] = tested on: Rattus norvegicus; test: Reduction of serum glutamate oxaloacetate transaminase (SGOT) level in STZ-induced type 2 diabetes male Wistar albino rat model at 20 mg/kg, po measured after 4 weeks by hepatic function test; assay type: functional, organism-based
[27] = tested on: Rattus norvegicus; test: Reduction of serum creatinine level in STZ-induced type 2 diabetes male Wistar albino rat model at 20 mg/kg, po measured after 4 weeks by hepatic function test; assay type: functional, organism-based
[28] = tested on: Rattus norvegicus; test: Antihyperlipidemic effect in STZ-induced type 2 diabetes male Wistar albino rat model assessed as total cholesterol level at 0.5 mg/kg, po measured after 4 weeks (reference value: 227.04 +/- 4.10 mg/dL); assay type: functional
[29] = tested on: Rattus norvegicus; test: Antihyperlipidemic effect in STZ-induced type 2 diabetes male Wistar albino rat model assessed as HDL level at 0.5 mg/kg, po measured after 4 weeks (reference value: 25.54 +/- 2.62 mg/dL); assay type: functional
[30] = tested on: Rattus norvegicus; test: Antihyperlipidemic effect in STZ-induced type 2 diabetes male Wistar albino rat model assessed as LDL level at 0.5 mg/kg, po measured after 4 weeks (reference value: 184.65 +/- 4.57 mg/dL); assay type: functional
[31] = tested on: Rattus norvegicus; test: Antihyperlipidemic effect in STZ-induced type 2 diabetes male Wistar albino rat model assessed as triglyceride level at 0.5 mg/kg, po measured after 4 weeks (reference value: 190.23 +/- 4.37 mg/dL); assay type: functional
[32] = molecular target: Dipeptidyl peptidase 8 (Homo sapiens, UniProt Q6V1X1); test: Inhibition of DPP8 (unknown origin) assessed as hydrolysis rate using Gly-pro-p-nitroanilide as substrate measured after 20 mins incubation by […] assay
Dipeptidyl peptidase 8, sequence (Q6V1X1 whole entry): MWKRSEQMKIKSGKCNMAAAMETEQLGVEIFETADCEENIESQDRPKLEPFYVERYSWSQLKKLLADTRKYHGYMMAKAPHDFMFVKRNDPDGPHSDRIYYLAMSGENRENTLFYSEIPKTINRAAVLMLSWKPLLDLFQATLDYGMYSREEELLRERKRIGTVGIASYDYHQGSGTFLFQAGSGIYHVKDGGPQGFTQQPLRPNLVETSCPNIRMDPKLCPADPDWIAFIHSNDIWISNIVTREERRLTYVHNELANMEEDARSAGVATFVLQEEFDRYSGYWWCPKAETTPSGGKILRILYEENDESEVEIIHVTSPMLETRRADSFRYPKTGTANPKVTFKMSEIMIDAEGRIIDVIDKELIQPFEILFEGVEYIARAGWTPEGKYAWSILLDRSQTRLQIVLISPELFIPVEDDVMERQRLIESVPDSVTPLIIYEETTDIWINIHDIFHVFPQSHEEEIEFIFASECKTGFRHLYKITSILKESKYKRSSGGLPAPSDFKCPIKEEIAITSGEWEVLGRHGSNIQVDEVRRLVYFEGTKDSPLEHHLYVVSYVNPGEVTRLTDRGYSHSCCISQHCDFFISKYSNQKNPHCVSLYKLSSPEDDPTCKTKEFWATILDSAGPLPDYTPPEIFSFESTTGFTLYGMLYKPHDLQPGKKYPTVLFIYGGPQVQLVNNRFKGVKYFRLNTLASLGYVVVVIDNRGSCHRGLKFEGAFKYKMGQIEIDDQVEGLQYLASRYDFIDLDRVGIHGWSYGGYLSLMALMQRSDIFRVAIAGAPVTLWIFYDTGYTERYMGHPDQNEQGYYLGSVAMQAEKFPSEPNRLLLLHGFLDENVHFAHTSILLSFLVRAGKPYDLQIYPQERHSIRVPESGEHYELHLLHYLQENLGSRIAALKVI

[33] = molecular target: Dipeptidyl peptidase 9 (Homo sapiens, UniProt Q86TI2); test: Inhibition of DPP9 (unknown origin) assessed as hydrolysis rate using Gly-pro-p-nitroanilide as substrate measured after 20 mins incubation by […] assay
Dipeptidyl peptidase 9, sequence (Q86TI2 whole entry): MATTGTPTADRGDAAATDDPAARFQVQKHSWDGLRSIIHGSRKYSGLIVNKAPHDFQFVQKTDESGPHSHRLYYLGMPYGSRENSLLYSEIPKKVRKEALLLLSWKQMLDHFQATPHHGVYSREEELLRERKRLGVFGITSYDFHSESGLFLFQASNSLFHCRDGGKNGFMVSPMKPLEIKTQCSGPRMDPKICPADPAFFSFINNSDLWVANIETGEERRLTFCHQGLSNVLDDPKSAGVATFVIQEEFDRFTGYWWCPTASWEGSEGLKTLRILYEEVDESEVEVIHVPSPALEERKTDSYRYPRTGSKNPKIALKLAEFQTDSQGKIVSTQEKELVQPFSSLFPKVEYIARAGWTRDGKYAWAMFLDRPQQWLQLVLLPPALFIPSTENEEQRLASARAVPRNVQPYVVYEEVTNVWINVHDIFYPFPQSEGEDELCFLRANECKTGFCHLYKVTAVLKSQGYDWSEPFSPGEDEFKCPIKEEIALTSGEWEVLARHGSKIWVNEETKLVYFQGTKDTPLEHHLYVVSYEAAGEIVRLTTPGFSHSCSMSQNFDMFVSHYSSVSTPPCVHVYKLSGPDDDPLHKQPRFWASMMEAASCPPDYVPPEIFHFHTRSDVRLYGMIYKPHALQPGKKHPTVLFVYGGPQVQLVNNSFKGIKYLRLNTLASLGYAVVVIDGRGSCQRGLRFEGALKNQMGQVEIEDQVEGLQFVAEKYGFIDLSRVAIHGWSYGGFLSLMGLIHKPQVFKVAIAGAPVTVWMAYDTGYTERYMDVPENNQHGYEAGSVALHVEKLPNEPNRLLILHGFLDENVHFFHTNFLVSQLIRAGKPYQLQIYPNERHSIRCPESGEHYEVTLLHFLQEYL

[34] = Acute toxicity in Balb/C mouse assessed as changes in general appearance at 1250 to 2000 mg/kg, po; assay type: organism-based; settings: in vivo, dose 1250-2000 mg/kg
[35] = Acute toxicity in Balb/C mouse assessed as morphological changes in skin at 1250 to 2000 mg/kg, po; assay type: organism-based; settings: in vivo, dose 1250-2000 mg/kg
[36] = Acute toxicity in Balb/C mouse assessed as morphological changes in fur at 1250 to 2000 mg/kg, po; assay type: organism-based; settings: in vivo, dose 1250-2000 mg/kg
[37] = Acute toxicity in Balb/C mouse assessed as morphological changes in nose at 1250 to 2000 mg/kg, po; assay type: organism-based; settings: in vivo, dose 1250-2000 mg/kg
[38] = Acute toxicity in Balb/C mouse assessed as morphological changes in eyes at 1250 to 2000 mg/kg, po; assay type: organism-based; settings: in vivo, dose 1250-2000 mg/kg
[39] = Acute toxicity in Balb/C mouse assessed as morphological changes in convulsions at 1250 to 2000 mg/kg, po; assay type: organism-based; settings: in vivo, dose 1250-2000 mg/kg
[40] = Acute toxicity in Balb/C mouse assessed as morphological changes in tremors at 1250 to 2000 mg/kg, po; assay type: organism-based; settings: in vivo, dose 1250-2000 mg/kg
[41] = Acute toxicity in Balb/C mouse assessed as morphological changes in diarrhea at 1250 to 2000 mg/kg, po; assay type: organism-based; settings: in vivo, dose 1250-2000 mg/kg
[42] = Acute toxicity in Balb/C mouse assessed as morphological changes in salvation at 1250 to 2000 mg/kg, po; assay type: organism-based; settings: in vivo, dose 1250-2000 mg/kg
[43] = Acute toxicity in Balb/C mouse assessed as morphological changes in unusual behavior at 1250 to 2000 mg/kg, po; assay type: organism-based; settings: in vivo, dose 1250-2000 mg/kg
[44] = organism: Rattus norvegicus; test: Anti-diabetic activity in STZ-induced type 2 diabetes male Wistar albino rat model assessed as fasting blood glucose level measured on day 1; assay type: functional
[45] = organism: Rattus norvegicus; test: Anti-diabetic activity in STZ-induced type 2 diabetes male Wistar albino rat model assessed as fasting blood glucose level measured on day 28; assay type: functional

| SMILES | IC50 [1] | Activity [2] | Activity [3] | Activity [4] | Activity [5] | Activity [6] | Activity [7] | Activity [8] | Activity [9] | Activity [10] | Activity [11] | Activity [12] | Activity [13] | Activity [14] | Activity [15] | Activity [16] | Activity [17] | Activity [18] | Activity [19] | Activity [20] | also measured |
| --- | --- | --- | --- | --- | --- | --- | --- | --- | --- | --- | --- | --- | --- | --- | --- | --- | --- | --- | --- | --- | --- |
| CC1=C(C(=O)O)C(c2ccc(F)c(F)c2)N=C(N)N1C(=O)CN1CCn2c(nnc2C(F)(F)F)C1 (stereo not given) | 0.116 µM | 117.53 mg/dL | 113.74 mg/dL | 134.23 mg/dL | 126.68 mg/dL | 114.05 mg/dL | 112.43 mg/dL | 110.82 mg/dL | 107.18 mg/dL | 103.12 mg/dL | 101.26 mg/dL | 148.1 mg/dL | 48.67 mg/dL | 121.78 mg/dL | 141.45 mg/dL | 134.27 mg/dL | 59.54 mg/dL | 105.65 mg/dL | 113.65 mg/dL | Active | Activity [21]: Active; Activity [22]: Active; Activity [23]: Active; Activity [24]: Active; Activity [25]: Active; Activity [26]: Active; Activity [27]: Active |
| COc1ccc(Cl)cc1C(=O)NCCc1ccc(S(=O)(=O)NC(=O)NC2CCCCC2)cc1 [GLYBURIDE] |  |  |  |  |  |  |  |  |  |  |  |  |  |  |  |  |  |  |  |  | Activity [28]: 123.65 mg/dL; Activity [29]: 66.6 mg/dL; Activity [30]: 97.55 mg/dL; Activity [31]: 106.87 mg/dL |
| CC1=C(C(=O)O)C(c2ccc(F)c(F)c2)N=C(N)N1C(=O)CN1Cc2cn(S(C)(=O)=O)nc2C1 (stereo not given) | 0.002 µM | 119.65 mg/dL | 121.54 mg/dL | 110.22 mg/dL | 108.68 mg/dL | 116.78 mg/dL | 114.26 mg/dL | 116.56 mg/dL | 109.75 mg/dL | 103.52 mg/dL | 100.83 mg/dL | 152.34 mg/dL | 45.9 mg/dL | 131.65 mg/dL | 146.34 mg/dL | 138.76 mg/dL | 53.56 mg/dL | 114.67 mg/dL | 117.23 mg/dL | Active | IC50 [32]: 3.32 µM; IC50 [33]: 2.84 µM; Activity [34]: Non-Toxic; Activity [35]: Non-Toxic; Activity [36]: Non-Toxic; Activity [37]: Non-Toxic; Activity [38]: Non-Toxic; Activity [39]: Non-Toxic; Activity [40]: Non-Toxic; Activity [41]: Non-Toxic; Activity [42]: Non-Toxic; Activity [43]: Non-Toxic; Activity [44]: 291 mg/dL; Activity [45]: 141 mg/dL; Activity [21]: Active; Activity [22]: Active; Activity [24]: Active; Activity [25]: Active; Activity [26]: Active |
